In ChEMBL document CHEMBL5252541, “Repurposing antipsychotic drugs into antifungal agents: Synergistic combinations of azoles and bromperidol derivatives in the treatment of various fungal infections” (Eur J Med Chem, 2017):

Legend:
[1] = system: Candida albicans; assay: Antifungal activity against Candida albicans ATCC 64124 measured after 48 hrs by broth microdilution analysis; format: functional
[2] = system: Candida albicans; assay: Antifungal activity against Candida albicans ATCC 10231 measured after 48 hrs by broth microdilution analysis; format: functional
[3] = system: Candida albicans; assay: Synergistic antifungal activity against Candida albicans ATCC 10231 assessed as compound MIC measured after 48 hrs in presence of fluconazole by checkboard based microplate reader analysis; format: functional
[4] = system: Candida albicans; assay: Synergistic antifungal activity against Candida albicans ATCC 64124 assessed as compound MIC measured after 48 hrs in presence of posaconazole by checkboard based microplate reader analysis; format: functional
[5] = system: Candida albicans; assay: Synergistic antifungal activity against Candida albicans ATCC 10231 assessed as compound MIC measured after 48 hrs in presence of posaconazole by checkboard based microplate reader analysis; format: functional
[6] = system: Candida albicans; assay: Synergistic antifungal activity against Candida albicans ATCC 64124 assessed as compound MIC measured after 48 hrs in presence of ketoconazole by checkboard based microplate reader analysis; format: functional
[7] = system: Candida albicans; assay: Synergistic antifungal activity against Candida albicans ATCC 10231 assessed as compound MIC measured after 48 hrs in presence of ketoconazole by checkboard based microplate reader analysis; format: functional
[8] = system: Candida albicans; assay: Synergistic antifungal activity against Candida albicans ATCC 64124 assessed as compound MIC measured after 48 hrs in presence of itraconazole by checkboard based microplate reader analysis; format: functional
[9] = system: Candida albicans; assay: Synergistic antifungal activity against Candida albicans ATCC 10231 assessed as compound MIC measured after 48 hrs in presence of itraconazole by checkboard based microplate reader analysis; format: functional
[10] = system: Candida albicans; assay: Synergistic antifungal activity against Candida albicans ATCC 64124 assessed as compound MIC measured after 48 hrs in presence of fluconazole by checkboard based microplate reader analysis; format: functional
[11] = system: Candida albicans; assay: Antifungal activity against Candida albicans ATCC MYA-1237 measured after 48 hrs by broth microdilution analysis; format: functional
[12] = system: Nakaseomyces glabratus; assay: Antifungal activity against Candida glabrata ATCC 2001 measured after 48 hrs by broth microdilution analysis; format: functional
[13] = system: Candida albicans; assay: Synergistic antifungal activity against Candida albicans ATCC 10231 assessed as compound MIC measured after 48 hrs in presence of voriconazole by checkboard based microplate reader analysis; format: functional
[14] = system: Candida albicans; assay: Synergistic antifungal activity against Candida albicans ATCC 64124 assessed as compound MIC measured after 48 hrs in presence of voriconazole by checkboard based microplate reader analysis; format: functional
[15] = system: Candida albicans; assay: Additive antifungal activity against Candida albicans ATCC 10231 assessed as fractional inhibitory concentration index measured for 72 hrs in presence of fluconazole; format: functional
[16] = system: Candida albicans; assay: Additive antifungal activity against Candida albicans ATCC 64124 assessed as fractional inhibitory concentration index measured for 72 hrs in presence of fluconazole; format: functional
[17] = system: Candida albicans; assay: Additive antifungal activity against Candida albicans ATCC 10231 assessed as fractional inhibitory concentration index measured for 72 hrs in presence of itraconazole; format: functional
[18] = system: Candida albicans; assay: Additive antifungal activity against Candida albicans ATCC 64124 assessed as fractional inhibitory concentration index measured for 72 hrs in presence of itraconazole; format: functional
[19] = system: Candida albicans; assay: Synergistic antifungal activity against Candida albicans ATCC 64124 assessed as fractional inhibitory concentration index measured for 72 hrs in presence of posaconazole; format: functional
[20] = system: Candida albicans; assay: Partial synergistic antifungal activity against Candida albicans ATCC 10231 assessed as fractional inhibitory concentration index measured for 72 hrs in presence of voriconazole; format: functional
[21] = system: Candida albicans; assay: Partial synergistic antifungal activity against Candida albicans ATCC 64124 assessed as fractional inhibitory concentration index measured for 72 hrs in presence of voriconazole; format: functional
[22] = system: Candida albicans; assay: Partial synergistic antifungal activity against Candida albicans ATCC 10231 assessed as fractional inhibitory concentration index measured for 72 hrs in presence of ketoconazole; format: functional
[23] = system: Candida albicans; assay: Partial synergistic antifungal activity against Candida albicans ATCC 64124 assessed as fractional inhibitory concentration index measured for 72 hrs in presence of ketoconazole; format: functional
[24] = system: Candida albicans; assay: Antifungal activity against Candida albicans ATCC MYA-1003 measured after 48 hrs by broth microdilution analysis; format: functional
[25] = system: Candida albicans; assay: Antifungal activity against Candida albicans ATCC MYA-2310 measured after 48 hrs by broth microdilution analysis; format: functional
[26] = system: Candida albicans; assay: Antifungal activity against Candida albicans ATCC MYA-2876 measured after 48 hrs by broth microdilution analysis; format: functional
[27] = system: Candida albicans; assay: Antifungal activity against Candida albicans ATCC 90819 measured after 48 hrs by broth microdilution analysis; format: functional
[28] = system: Aspergillus terreus; assay: Antifungal activity against Aspergillus terreus ATCC MYA-3633 measured after 48 hrs by broth microdilution analysis; format: functional
[29] = system: Candida albicans; assay: Additive antifungal activity against Candida albicans ATCC MYA-1237 assessed as fractional inhibitory concentration index measured for 72 hrs in presence of posaconazole; format: functional
[30] = system: Candida albicans; assay: Additive antifungal activity against Candida albicans ATCC MYA-1237 assessed as fractional inhibitory concentration index measured for 72 hrs in presence of voriconazole; format: functional
[31] = system: Candida albicans; assay: Additive antifungal activity against Candida albicans ATCC MYA-2310 assessed as fractional inhibitory concentration index measured for 72 hrs in presence of voriconazole; format: functional
[32] = system: Candida albicans; assay: Additive antifungal activity against Candida albicans ATCC MYA-2876 assessed as fractional inhibitory concentration index measured for 72 hrs in presence of voriconazole; format: functional
[33] = system: Nakaseomyces glabratus; assay: Additive antifungal activity against Candida glabrata ATCC 2001 assessed as fractional inhibitory concentration index measured for 72 hrs in presence of posaconazole; format: functional
[34] = system: Nakaseomyces glabratus; assay: Additive antifungal activity against Candida glabrata ATCC 2001 assessed as fractional inhibitory concentration index measured for 72 hrs in presence of voriconazole; format: functional
[35] = system: Aspergillus terreus; assay: Additive antifungal activity against Aspergillus terreus ATCC MYA-3633 assessed as fractional inhibitory concentration index measured for 72 hrs in presence of posaconazole; format: functional
[36] = system: Aspergillus terreus; assay: Additive antifungal activity against Aspergillus terreus ATCC MYA-3633 assessed as fractional inhibitory concentration index measured for 72 hrs in presence of voriconazole; format: functional
[37] = system: Candida albicans; assay: Partial synergistic antifungal activity against Candida albicans ATCC MYA-1003 assessed as fractional inhibitory concentration index measured for 72 hrs in presence of posaconazole; format: functional
[38] = system: Candida albicans; assay: Partial synergistic antifungal activity against Candida albicans ATCC MYA-1003 assessed as fractional inhibitory concentration index measured for 72 hrs in presence of voriconazole; format: functional
[39] = system: Candida albicans; assay: Synergistic antifungal activity against Candida albicans ATCC 90819 assessed as fractional inhibitory concentration index measured for 72 hrs in presence of voriconazole; format: functional
[40] = system: Candida albicans; assay: Partial synergistic antifungal activity against Candida albicans MYA-2876 assessed as fractional inhibitory concentration index measured for 72 hrs in presence of posaconazole; format: functional
[41] = system: Candida albicans; assay: Partial synergistic antifungal activity against Candida albicans ATCC 90819 assessed as fractional inhibitory concentration index measured for 72 hrs in presence of posaconazole; format: functional
[42] = system: Candida albicans; assay: Additive antifungal activity against Candida albicans MYA-1003 assessed as fractional inhibitory concentration index measured for 72 hrs in presence of voriconazole
[43] = system: Candida albicans; assay: Additive antifungal activity against Candida albicans ATCC 10231 assessed as fractional inhibitory concentration index measured for 72 hrs in presence of ketoconazole; format: functional
[44] = system: Candida albicans; assay: Additive antifungal activity against Candida albicans ATCC 64124 assessed as fractional inhibitory concentration index measured for 72 hrs in presence of ketoconazole; format: functional
[45] = system: Candida albicans; assay: Additive antifungal activity against Candida albicans ATCC 64124 assessed as fractional inhibitory concentration index measured for 72 hrs in presence of voriconazole; format: functional
[46] = system: Candida albicans; assay: Additive antifungal activity against Candida albicans ATCC MYA-2310 assessed as fractional inhibitory concentration index measured for 72 hrs in presence of posaconazole; format: functional
[47] = system: Candida albicans; assay: Additive antifungal activity against Candida albicans ATCC MYA-2876 assessed as fractional inhibitory concentration index measured for 72 hrs in presence of posaconazole; format: functional
[48] = system: Candida albicans; assay: Additive antifungal activity against Candida albicans ATCC 90819 assessed as fractional inhibitory concentration index measured for 72 hrs in presence of posaconazole; format: functional
[49] = system: Candida albicans; assay: Additive antifungal activity against Candida albicans ATCC 90819 assessed as fractional inhibitory concentration index measured for 72 hrs in presence of voriconazole; format: functional
[50] = system: Nakaseomyces glabratus; assay: Synergistic antifungal activity against Candida glabrata ATCC 2001 assessed as fractional inhibitory concentration index measured for 72 hrs in presence of posaconazole; format: functional
[51] = system: Candida albicans; assay: Potency index, ratio of fluconazole MIC to test compound MIC for antifungal activity against Candida albicans ATCC 10231 measured after 48 hrs by broth microdilution analysis; format: functional

Compound `O=C(CCCN1CCC(O)(c2ccc(Br)cc2)CC1)c1ccc(Cl)cc1` has an MIC [1] of over 32 µg/mL, an MIC [2] of over 32 µg/mL and an MIC [3] of 16 µg/mL. For the same compound, the MIC [4] was 4 µg/mL, the MIC [5] was 4 µg/mL and the MIC [6] was 0.5 µg/mL. It also gave an MIC [7] of 16 µg/mL, an MIC [8] of over 32 µg/mL and an MIC [9] of over 32 µg/mL. It also gave an MIC [10] of over 32 µg/mL, an MIC [11] of over 32 µg/mL and an MIC [12] of over 32 µg/mL. The MIC [13] was 16 µg/mL, the MIC [14] was 16 µg/mL and the “fractional inhibitory concentration index (FICI)” value [15] was 1.5. The “fractional inhibitory concentration index (FICI)” value [16] was 2, the “fractional inhibitory concentration index (FICI)” value [17] was 2 and the “fractional inhibitory concentration index (FICI)” value [18] was 2. For the same compound, the “fractional inhibitory concentration index (FICI)” value [19] was 0.19, the “fractional inhibitory concentration index (FICI)” value [20] was 0.75 and the “fractional inhibitory concentration index (FICI)” value [21] was 0.63. The “fractional inhibitory concentration index (FICI)” value [22] was 0.75, the “fractional inhibitory concentration index (FICI)” value [23] was 0.52 and the MIC [24] was over 32 µg/mL. It also gave an MIC [25] of over 32 µg/mL, an MIC [26] of over 32 µg/mL and an MIC [27] of over 32 µg/mL. The MIC [28] was over 32 µg/mL, the “fractional inhibitory concentration index (FICI)” value [29] was 1.02 and the “fractional inhibitory concentration index (FICI)” value [30] was 1. The “fractional inhibitory concentration index (FICI)” value [31] was 1, the “fractional inhibitory concentration index (FICI)” value [32] was 1 and the “fractional inhibitory concentration index (FICI)” value [33] was 2. The “fractional inhibitory concentration index (FICI)” value [34] was 2, the “fractional inhibitory concentration index (FICI)” value [35] was 2 and the “fractional inhibitory concentration index (FICI)” value [36] was 2. For the same compound, the “fractional inhibitory concentration index (FICI)” value [37] was 0.53, the “fractional inhibitory concentration index (FICI)” value [38] was 0.75 and the “fractional inhibitory concentration index (FICI)” value [39] was 0.31. The “fractional inhibitory concentration index (FICI)” value [40] was 0.52, the “fractional inhibitory concentration index (FICI)” value [41] was 0.52 and the “fractional inhibitory concentration index (FICI)” value [42] was 0.75.
`COc1ccc(C(=O)CCCN2CCC(O)(c3ccc(Br)cc3)CC2)cc1` was tested, and the MIC [1] was over 128 µg/mL, the MIC [2] was over 128 µg/mL and the MIC [3] was over 128 µg/mL. It also gave an MIC [4] of 8 µg/mL, an MIC [5] of over 128 µg/mL and an MIC [6] of 64 µg/mL. It also gave an MIC [7] of over 128 µg/mL, an MIC [8] of over 128 µg/mL and an MIC [9] of over 128 µg/mL. The MIC [10] was over 128 µg/mL, the MIC [11] was over 128 µg/mL and the MIC [12] was over 128 µg/mL. The MIC [13] was 32 µg/mL, the MIC [14] was 128 µg/mL and the “fractional inhibitory concentration index (FICI)” value [15] was 2. For the same compound, the “fractional inhibitory concentration index (FICI)” value [16] was 2, the “fractional inhibitory concentration index (FICI)” value [17] was 2 and the “fractional inhibitory concentration index (FICI)” value [18] was 2. For the same compound, the “fractional inhibitory concentration index (FICI)” value [43] was 2, the “fractional inhibitory concentration index (FICI)” value [44] was 1 and the “fractional inhibitory concentration index (FICI)” value [19] was 0.13. The “fractional inhibitory concentration index (FICI)” value [20] was 0.75, the “fractional inhibitory concentration index (FICI)” value [45] was 1.25 and the MIC [24] was over 128 µg/mL. For the same compound, the MIC [25] was over 128 µg/mL, the MIC [26] was over 128 µg/mL and the MIC [27] was over 128 µg/mL. The MIC [28] was over 128 µg/mL, the “fractional inhibitory concentration index (FICI)” value [29] was 2 and the “fractional inhibitory concentration index (FICI)” value [30] was 2. For the same compound, the “fractional inhibitory concentration index (FICI)” value [46] was 2, the “fractional inhibitory concentration index (FICI)” value [31] was 2 and the “fractional inhibitory concentration index (FICI)” value [47] was 2. The “fractional inhibitory concentration index (FICI)” value [32] was 2, the “fractional inhibitory concentration index (FICI)” value [48] was 2 and the “fractional inhibitory concentration index (FICI)” value [49] was 2. For the same compound, the “fractional inhibitory concentration index (FICI)” value [33] was 0.5, the “fractional inhibitory concentration index (FICI)” value [34] was 2 and the “fractional inhibitory concentration index (FICI)” value [36] was 2. For the same compound, the “fractional inhibitory concentration index (FICI)” value [50] was 0.51, the Ratio [51] was 16 and the “fractional inhibitory concentration index (FICI)” value [42] was 2.
